Measurements: article PMC10748408 (Frontiers in Oncology, 2023)

Tests used:
[1] = system: normal mice; assay: Serum biochemical parameters (ALT, AST, creatinine, urea) of normal mice treated with ART; type: in vivo, BALB/c mice
Protocol: Levels of alanine aminotransferase (ALT) and aspartate aminotransferase (AST) from the serum were determined using ALT and AST estimation kits (Robonik India Pvt. Ltd, India). Briefly, for ALT activity estimation, Reagent 1 (Tris Buffer, L-Alanine, Lactate Dehydrogenase) and Reagent 2 (α-ketoglutarate, NADH) was mixed (4:1) with 100 µl serum. After 60 seconds incubation, absorbance was measured at 340 nm every minute for 180 seconds (ΔA/minute). Finally, the activity was estimated using the formula: Activity of the sample = (ΔA/minute x 1746). Analysis and final calculations were carried out according to the manufacturer’s protocol ([29]) For AST activity estimation, Reagent 1 (Tris Buffer, L-Aspartate, Lactate Dehydrogenase; >600U/L, Malate dehydrogenase; >600U/L) and Reagent 2 (α-ketoglutarate, NADH) was mixed together (4:1) with 100 µl serum. After incubation for 60 seconds, absorbance was measured at 340 nm per minute for 180 seconds (ΔA/minute). Finally, the activity was estimated using the formula: Activity of the sample = (ΔA/minute x 1746). Analysis and final calculations were carried out according to the manufacturer’s protocol ([30]). For estimation of creatinine level, picric acid (0.5 ml), buffer (0.5 ml) and sample (Test)/standard (S) (0.1 ml) were mixed and absorbance was measured at 520 nm for 30 seconds and 60 seconds. The rate of change of absorbance was determined for the standard (ΔS) and test (ΔT) samples. The levels were estimated using the formula: creatinine (mg/dl) = (ΔT)/(ΔS) x 2.0 ([31]). Urea levels were estimated using specific metabolite analysis kits. Buffer (1 ml), enzyme (0.1 ml), sample (test)/standard (0.1 ml) and chromogen reagent (0.2 ml) were mixed. Absorbance was measured at 570 nm after 5 minutes of incubation of test (Abs T) and standard (Abs S) samples. The levels were estimated using the formula: Urea (mg/dl) = (AbsT)/(AbsS) x 40. Analysis and calculations were carried out according to the manufacturer’s protocol ([32]). […]

[2] = system: 4T1 cells; assay: Cell viability assay (MTT); type: cell-based, murine; conditions: Mus musculus, 24 hours
Protocol: (§1) Human triple negative breast cancer cells MDA-MB-231 and murine mammary cancer cells 4T1 were obtained from National Centre for Cell Sciences, Pune, India. Cells were maintained in complete Dulbecco’s Modified Eagle Medium (DMEM) supplemented with 10% FBS and 1% penicillin/streptomycin, and incubated at 37°C in 5% CO2 - 95% humidified atmosphere. Cells in log phase of growth was used for all subsequent experiments ([21]). 1 x 10^5 viable cells were seeded in a 96-well plate. […] Following treatment, wells were washed to remove the media and 100 µl of PBS was added to each well. Finally, 10 µl of MTT solution (5 mg/mL in PBS) was added and incubated at 37°C for 3 hours. The purple crystals formed were dissolved in 150 µl of DMSO. Absorbance was measured at 570 nm in a multi-plate reader Varioskan™ Lux (Thermo Fisher Scientific, USA; [21]).

[3] = system: MDA-MB-231 cells; assay: Cell viability assay (MTT); type: cell-based; conditions: Homo sapiens, 24 hours
Protocol: as §1

[4] = Body weight of mice; type: in vivo, BALB/c mice
Protocol: Mouse mammary 4T1 cells in passage numbers between 7 and 12 (10^4 cells/ml in 50 µl PBS) were injected into the inguinal 4th mammary fat pad of BALB/c mice ([23], [24]). Normal mice received an equal volume of sterile PBS. A palpable tumor was allowed to develop for 14 days ([24]). […] Normal (mammary fat pad surrounding the 4th inguinal mammary pad), mammary tumor, and organs like lungs, kidney, liver, and blood were collected at the end of the experimental schedule. Body weight and tumor volume of each mouse were recorded daily during the tenure of the experiment. Tumor volume was calculated using the following formula: length (mm) × width^2 (mm) × 0.52 ([25]).

[5] = system: tumor cells; assay: Cell cycle assay (PI, flow cytometry) of cells isolated from tumors; type: in vivo, BALB/c mice; conditions: 25 and 50 mg/kg bodyweight ART vs untreated tumor-bearing mice, p<0.05
Protocol: Cells (1 x 10^6) were isolated from tissues by collagenase-hyaluronidase digestion and fixed in ice-cold ethanol at -20°C. Samples were washed and resuspended in PBS containing 40 µg/mL RNase A for 1 hr. The cells were then stained with 30 µg/mL propidium iodide in the dark for 30 minutes and analyzed by flow cytometry using the BD Verse (BD Biosciences, USA). Data were analyzed using the BD FACSuite™ software ([35]).

[6] = system: TNF-α, IL-1β, IL-6 and IL-12; assay: Serum pro-inflammatory cytokine ELISA; type: in vivo, BALB/c mice; conditions: ART-treated vs untreated tumor-bearing mice
Protocol: Serum isolated from experimental mice, and conditioned media collected from MDA-MB-231 and 4T1 cells, were used to estimate levels of cytokines by ELISA. To prepare the conditioned media, the cell culture medium containing serum was discarded and cells were washed with serum-free DMEM media. […] After incubation, the conditioned media was collected for cytokine analysis. As per the manufacturer’s protocol, samples were added to the multi-analyte ELISArray wells, coated with antibodies for TNF-α, IL-1β, IL-6 and IL-12 and incubated for 2 hours. Detection antibodies were added, followed by 30 minutes incubation with avidin-HRP. After incubating with the developing solution, stop solution (Qiagen) was added to terminate the reaction ([39]). The O.D. was measured at 450 and 570 nm in an ELISA plate reader (Varioskan Lux, Thermo Fisher; USA).

[7] = ART 6.25 mg/kg body wt, 3 weeks (21 days)
[8] = ART 12.5 mg/kg body wt, 3 weeks (21 days)
[9] = ART 25 mg/kg body wt, 3 weeks (21 days)
[10] = ART 50 mg/kg body wt, 3 weeks (21 days)

For `C[C@@H]1CC[C@H]2[C@@H](C)C(=O)O[C@@H]3O[C@@]4(C)CC[C@@H]1[C@]32OO4` [ART, Artemisinin], the ALT [1, 7] was 28.1±2.6 U/l, the AST [1, 7] was 29.8±4.6 U/l and the Creatinine [1, 7] was 0.48 ± 0.21 mg/dL. It also gave a Urea [1, 7] of 31.6 ± 1.9 mg/dL, an ALT ([1]; ART 6.25 mg/kg body wt, 7 days) of 23.7 ± 1.8 U/l and an AST ([1]; ART 6.25 mg/kg body wt, 7 days) of 27.3 ± 0.8 U/l. For the same molecule, the Creatinine ([1]; ART 6.25 mg/kg body wt, 7 days) was 0.51 ± 0.09 mg/dL, the Urea ([1]; ART 6.25 mg/kg body wt, 7 days) was 24.5 ± 1.2 mg/dL and the ALT [1, 8] was 29.3±3.1 U/l. It also gave an AST [1, 8] of 31.4±2.6 U/l, a Creatinine [1, 8] of 0.68 ± 0.12 mg/dL and a Urea [1, 8] of 28.7 ± 2.3 mg/dL. For the same molecule, the ALT ([1]; ART 12.5 mg/kg body wt, 7 days) was 26.6 ± 2.2 U/l, the AST ([1]; ART 12.5 mg/kg body wt, 7 days) was 29.6 ± 1.3 U/l and the Creatinine ([1]; ART 12.5 mg/kg body wt, 7 days) was 0.77 ± 0.13 mg/dL. It also gave a Urea ([1]; ART 12.5 mg/kg body wt, 7 days) of 26.3 ± 1.6 mg/dL, an ALT [1, 9] of 29.5±2.1 U/l and an AST [1, 9] of 28.5±2.8 U/l. It also gave a Creatinine [1, 9] of 0.49 ± 0.3 mg/dL, a Urea [1, 9] of 30.1 ± 2.6 mg/dL and an ALT ([1]; ART 25 mg/kg body wt, 7 days) of 30.7 ± 1.5 U/l. The AST ([1]; ART 25 mg/kg body wt, 7 days) was 31.7 ± 3.1 U/l, the Creatinine ([1]; ART 25 mg/kg body wt, 7 days) was 0.62 ± 0.07 mg/dL and the Urea ([1]; ART 25 mg/kg body wt, 7 days) was 28.2 ± 0.8 mg/dL. It also gave an ALT [1, 10] of 28.8±3.2 U/l, an AST [1, 10] of 30.3±1.9 U/l and a Creatinine [1, 10] of 0.62 ± 0.38 mg/dL. The Urea [1, 10] was 28.9 ± 2.1 mg/dL, the ALT ([1]; ART 50 mg/kg body wt, 7 days) was 26.4 ± 2.3 U/l and the AST ([1]; ART 50 mg/kg body wt, 7 days) was 29.3 ± 2.6 U/l. For the same molecule, the Creatinine ([1]; ART 50 mg/kg body wt, 7 days) was 0.71 ± 0.1 mg/dL, the Urea ([1]; ART 50 mg/kg body wt, 7 days) was 27.1 ± 1.3 mg/dL and the IC50 [2] was 1 µM. For the same molecule, the IC50 [3] was 5 µM, the body weight ([4]; normal mice, ART 6.25-50 mg/kg, 7 days, vs vehicle) was “did not alter” and the body weight ([4]; tumor-bearing mice, ART treatment, dose-dependent) was “restored towards normal values”. The “percentage of G2/M cell count” value [5] was “significant increase” and the “levels of pro-inflammatory cytokines (TNF-α, IL-1β, IL-6 and IL-12)” value [6] was “dose-dependent reduction”.
